Some test systems named below: SK-MEL-28; MDA-MB-435; HCT-15; NCI/ADR-RES; SK-MEL-5; SN12C; MDA-MB-231; CAKI-1; COLO 205; SF-539; T47D; EKVX; UO-31; SR; NCI-H226; TK-10; NCI-H460; HCC 2998; A498.
What all share (experiment): NCI tumour cell line growth inhibition, 48 h

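Protocol summary: plate cells (96-well), add compound at 5 concentrations, incubate 48 h, interpolate endpoints linearly. GI50 is the concentration that inhibits growth by half.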 Activity calls are given as the source filed them. Rule as the data show it: active = GI50 up to about 1.1 µM and inactive = higher.

Regarding `CCOc1cc(C2CC(c3ccc(NS(=O)(=O)c4cc([N+](=O)[O-])ccc4C)cc3)=NN2c2ccc([N+](=O)[O-])cc2[N+](=O)[O-])ccc1O` (stereo unspecified), the GI50 in the test on SK-MEL-28 was 8 µM (inactive); in the test with MDA-MB-435 it was 11.6 µM (inactive); in the test on HCT-15, 19.3 µM; with NCI/ADR-RES it was 8.04 µM (inactive); in the test on SK-MEL-5, 10.4 µM (inactive); in the test with SN12C it was 3.15 µM (inactive). The GI50 with MDA-MB-231 was 6.3 µM (inactive); in the test with CAKI-1, 16.9 µM (inactive); with COLO 205, 17.7 µM (inactive); in the test on SF-539, 7.45 µM (inactive); in the test with T47D, 9.68 µM (inactive); in the test with EKVX it was 4.71 µM (inactive). The GI50 with UO-31 is 14.6 µM (inactive); in the test with SR, 28.5 µM (inactive); with NCI-H226, 7.31 µM (inactive); with TK-10 it was 15.7 µM (inactive).

For the compound `c1ccc(CC2COC(c3cccs3)=N2)cc1` (stereo unspecified), the GI50 in the test on NCI-H460 was > 86.5 µM (inactive); with SK-MEL-28, > 100 µM (inactive); in the test with MDA-MB-435, > 100 µM (inactive); in the test on HCT-15 it was 38.3 µM; with NCI/ADR-RES, 48.5 µM (inactive); with SK-MEL-5, 57.7 µM (inactive). Besides, the GI50 in the test with HCC 2998 is > 73.8 µM (inactive); with SN12C, > 64.4 µM (inactive); with MDA-MB-231, > 72.6 µM (inactive); in the test on CAKI-1, > 100 µM (inactive); in the test on COLO 205, > 100 µM (inactive); with SF-539, > 45 µM (inactive). The GI50 with T47D is 26 µM (inactive); in the test with EKVX, 66.2 µM (inactive); with UO-31, 64.1 µM (inactive); with SR, 46.7 µM (inactive); in the test on NCI-H226, 67.9 µM (inactive); in the test with TK-10, > 90.2 µM (inactive).

On to `Cc1ccc(C2SC(=N)Nc3c2c(C)nn3C(=O)c2ccncc2)cc1` (stereo unspecified), for which the GI50 in the test with NCI-H460 is > 10 µM (inactive); in the test on SK-MEL-28 it was > 10 µM (inactive); in the test with MDA-MB-435, > 10 µM (inactive); in the test with HCT-15, more than 10 µM; in the test with NCI/ADR-RES it was > 10 µM (inactive); in the test on SK-MEL-5, > 10 µM (inactive). Moreover, the GI50 in the test on HCC 2998, in the test on SN12C, in the test on MDA-MB-231, in the test with CAKI-1, with COLO 205 and with SF-539 was > 10 µM (inactive) in each case. Also, the GI50 in the test with T47D, with SR, in the test on NCI-H226 and in the test with TK-10 was > 10 µM (inactive) in each case.

As to `CCOC(=O)CCC(NC(=O)c1ccc(Nc2nc3ccc(C(F)(F)F)cc3nc2-c2ccccc2)cc1)C(=O)OCC` (stereo unspecified), the GI50 was 56.6 µM (inactive) in the test on NCI-H460; 40.3 µM (inactive) with SK-MEL-28; 83 µM (inactive) in the test with MDA-MB-435; more than 100 µM in the test with HCT-15; > 100 µM (inactive) in the test with NCI/ADR-RES; 30.4 µM (inactive) in the test on SK-MEL-5. For the same compound, the GI50 in the test on HCC 2998 was 28 µM (inactive); in the test on SN12C, > 100 µM (inactive); in the test with MDA-MB-231 it was 21.6 µM (inactive); in the test with CAKI-1 it was > 100 µM (inactive); in the test on COLO 205, 16.2 µM (inactive); with SF-539, 45.5 µM (inactive). Besides, the GI50 is 22.1 µM (inactive) in the test with T47D; > 100 µM (inactive) with EKVX; 31.5 µM (inactive) in the test with UO-31; 33.9 µM (inactive) in the test on SR; > 57.3 µM (inactive) in the test with NCI-H226; > 100 µM (inactive) in the test on TK-10.

Consider `COC(=O)/C=C/N1CC1`, for which the GI50 with NCI-H460 is > 10 µM (inactive); in the test on SK-MEL-28, > 10 µM (inactive); in the test with MDA-MB-435, > 10 µM (inactive); with HCT-15 it was more than 10 µM; in the test with NCI/ADR-RES it was > 10 µM (inactive); with SK-MEL-5 it was > 10 µM (inactive). In addition, the GI50 is 3.62 µM (inactive) in the test with HCC 2998; > 10 µM (inactive) in the test with SN12C; > 10 µM (inactive) in the test with MDA-MB-231; > 10 µM (inactive) in the test with CAKI-1; 2.19 µM (inactive) in the test on COLO 205; > 10 µM (inactive) in the test on SF-539. Further, the GI50 in the test on T47D was > 10 µM (inactive); with EKVX, > 10 µM (inactive); with SR, > 10 µM (inactive); in the test on NCI-H226, > 10 µM (inactive); with TK-10 it was 4.09 µM (inactive).

Take `CCN(CC)S(=O)(=O)c1ccc2[nH]c(NC(=O)OC)nc2c1`: the GI50 in the test on NCI-H460 is 49.2 µM (inactive); in the test with SK-MEL-28 it was 37.3 µM (inactive); in the test with MDA-MB-435, 15.3 µM (inactive); with HCT-15, 47.2 µM; with NCI/ADR-RES, > 100 µM (inactive); in the test with SK-MEL-5, 98.9 µM (inactive). For the same compound, the GI50 was 7 µM (inactive) in the test with HCC 2998; > 100 µM (inactive) with SN12C; > 100 µM (inactive) in the test on MDA-MB-231; > 100 µM (inactive) in the test with CAKI-1; 96.8 µM (inactive) in the test with COLO 205; 30 µM (inactive) with SF-539. Besides, the GI50 is 53.8 µM (inactive) in the test with T47D; > 100 µM (inactive) in the test with EKVX; 46.3 µM (inactive) in the test on UO-31; 28.9 µM (inactive) in the test with SR; > 100 µM (inactive) in the test with NCI-H226; 6.47 µM (inactive) in the test on TK-10.

In the case of `Cc1ccc2ccccc2c1NC1=NCCO1`, the GI50 with NCI-H460 is 33.7 µM (inactive); in the test with SK-MEL-28, > 100 µM (inactive); in the test on MDA-MB-435, > 100 µM (inactive); in the test with HCT-15, more than 100 µM; in the test on NCI/ADR-RES, > 100 µM (inactive); in the test with SK-MEL-5, 81.5 µM (inactive). Also, the GI50 in the test on HCC 2998 was 82.8 µM (inactive); in the test with SN12C, > 100 µM (inactive); in the test with MDA-MB-231 it was > 100 µM (inactive); in the test with COLO 205, > 100 µM (inactive); in the test with SF-539 it was 35.6 µM (inactive); in the test on T47D it was 41.7 µM (inactive). Also, the GI50 in the test with EKVX was > 100 µM (inactive); in the test with UO-31 it was 27.7 µM (inactive); in the test on SR, 34.2 µM (inactive); in the test with NCI-H226, 20.2 µM (inactive); with TK-10, > 100 µM (inactive).

On to `O=C(O)CSC(CC(=O)c1ccc(Cl)cc1)c1ccc(Cl)cc1` (stereo unspecified), for which the GI50 was 41.6 µM (inactive) in the test with A498; 30.8 µM (inactive) in the test with NCI-H460; 22.1 µM (inactive) in the test with MDA-MB-435; 22.1 µM in the test on HCT-15; 38.7 µM (inactive) in the test on NCI/ADR-RES; 34.4 µM (inactive) with SK-MEL-5. The GI50 with SN12C is 43 µM (inactive); with MDA-MB-231, 42 µM (inactive); with CAKI-1, 35.3 µM (inactive); in the test on COLO 205, 49.8 µM (inactive); in the test with SF-539 it was 36.6 µM (inactive); with T47D, 29.3 µM (inactive). The GI50 is 41 µM (inactive) in the test with EKVX, 34.6 µM (inactive) in the test on UO-31, 2.36 µM (inactive) in the test on SR and 21.4 µM (inactive) with TK-10.

These data come from ChEMBL document CHEMBL1201862, “PubChem BioAssay data set” (2004).
